Assay results: patent US11292971B2, “Dissolution of hexamine in non-aqueous solvent” (ECOLAB USA INC., priority 2017, dated 2022)

Tests used:
[1] = Dissolution of hexamine in cinnamyl alcohol and glycerin: slurry left two days, clear supernatant analyzed for composition; type: physicochemical; details: about room temperature
Protocol: Slurries were prepared by mixing hexamine in cinnamyl alcohol or a mixture of cinnamyl alcohol and glycerin at about room temperature. The compositions were then allowed to sit undisturbed for two days and the clear supernatant decanted off and analyzed for composition. As the results below illustrate, clear stable solutions of hexamine in various ratios of glycerin and cinnamyl alcohol were obtained.

[2] = 20° C., cited from earlier work

Structure (SMILES): C1N2CN3CN1CN(C2)C3 [Hexamine, 1,3,5,7-tetraazatricyclo[3.3.1.1^3,7]decane]
- Hexamine in stable solution ([1]; cinnamyl alcohol 16, glycerin (<1% water) 76 weight %): 8 Weight %
- Hexamine in stable solution ([1]; cinnamyl alcohol 32, glycerin (<1% water) 63 weight %): 5 Weight %
- Hexamine in stable solution ([1]; cinnamyl alcohol 37, glycerin (<1% water) 55 weight %): 8 Weight %
- Hexamine in stable solution ([1]; cinnamyl alcohol 50, glycerin (<1% water) 43 weight %): 7 Weight %
- Hexamine in stable solution ([1]; cinnamyl alcohol 59, glycerin (<1% water) 34 weight %): 7 Weight %
- Hexamine in stable solution ([1]; cinnamyl alcohol 68, glycerin (<1% water) 22 weight %): 10 Weight %
- Hexamine in stable solution ([1]; cinnamyl alcohol 78, glycerin (<1% water) 11 weight %): 11 Weight %
- Hexamine in stable solution ([1]; cinnamyl alcohol 84, glycerin (<1% water) 6 weight %): 10 Weight %
- Hexamine in stable solution ([1]; cinnamyl alcohol 93, glycerin (<1% water) 0 weight %): 7 Weight %
- solubility in acetone ([2]; acetone): 0.65 g
- solubility in benzene ([2]; benzene): 0.23 g
- solubility in chloroform ([2]; chloroform): 13.4 g
- solubility in ethanol ([2]; ethanol): 2.89 g
- solubility in ether ([2]; ether): 0.06 g
- solubility in methanol ([2]; methanol): 7.25 g
- solubility in petroleum ether ([2]; petroleum ether): near zero
- solubility in xylene ([2]; xylene): 0.14 g
